# pIC50: −log10 of the molar value.
# Experiments:
# pAkt(T308) = test: In-cell Western assay, pAkt(T308), PC3 cells; type: cell-based; conditions: Homo sapiens, PC-3, 2 hours incubation
# Experimental: Cells from human prostate cancer cell line PC3 (American Type Culture Collection (ATCC), Manassas, Va. 20108 USA) were seeded at an optimal density of 22,000 cell/well in 96-well plates containing Ham's F12K medium (90 μL) and incubated overnight. The compound dilutions were carried out in 100% DMSO followed by a dilution in the medium. Test compounds were added in serial dilutions to the wells and incubated for 2 hours. The cells were washed and fixed with 4% paraformaldehyde. After incubation at room temperature for 1 hour in the dark, blocking was done for 2 hours at room temperature. Primary antibodies for pAkt(S473) ([…] phosphorylated at serine 473), pAkt(T308) (Akt phosphorylated at threonine 308) and for pS6RP (S235/236) (phosphorylated at serine 235/236) (commercially available from Cell Signaling Technology®, whose protocol was followed for the in-cell western assay, were diluted to the required concentration and added to the corresponding wells followed by overnight incubation at 4° C. Eu-labeled rabbit (PE) (Perkin-Elmer USA catalog #AD0106) secondary antibody was added and incubated for 2 hours at room temperature. Delfia® enhancement solution (cat #1244-105, Perkin Elmer USA) was subsequently added to the plate before taking the reading at 615 nm with excitation wavelength of 340 nm, after which 0.5 μg/mL of Hoechst® 33258 dye (Catalog #86140-5, Sigma) was added to the plate and fluorescence emission was read at 460 nm with 355 nm excitation, to evaluate the correction factor. IC50 values were calculated using a sigmoidal dose-response curve fit in GraphPad Prism® v5 software.
# mTOR kinase = target: T1, mTOR kinase (Homo sapiens, UniProt P42345); test: mTOR kinase TR-FRET assay; type: biochemical; conditions: 20 μM ATP
# T1 construct: purchased Millipore, USA
# How it was run: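 Test compounds were pre-incubated 60 min with mTOR (5 ng), then ULight-p70 S6K (Thr389) peptide (50 nM) and ATP (20 μM) were added in HEPES 50 mM pH 7.5, EGTA, MnCl2 3 mM. After 60 min at room temperature, EDTA stop and Eu-anti-phospho antibody TR-FRET (665/615 nm) gave IC50 from sigmoidal variable-slope fits.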
# PI3Kα (wild-type) = target: T2, PI3Kα (wild-type) (Homo sapiens, UniProt P42336); test: PI3 Kinase TR-FRET assay, PI3Kα (wild-type); type: biochemical; conditions: wild-type P110/P85α, 10 μM ATP
# T2 construct: made in house; host or cells: SF9 insect cells
# How it was run: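 Sf9-expressed, Ni-purified p110/p85α (5 ng) with PIP2 was preincubated with compound for 60 min at room temperature in buffer with 40 mM MgCl2 and 5 mM DTT. The reaction ran 30 min at room temperature with 10 μM PIP2 and 10 μM ATP. The TR-FRET 665/615 nm ratio was used to derive IC50 from dose-response curves.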
# PC3 cells = test: XTT assay for cell viability, PC3 cells; type: cell-based; conditions: Homo sapiens, PC-3; PC3 cell proliferation, 96 hours
# Experimental: Using a commercial kit from Sigma Aldrich (Catalog #X34251) and following its protocol, PC3 cells in the log phase of growth were employed and seeded at an optimal density of 1000 cell/well on to 96 well plates and incubated for 24 hours followed by the addition of compounds of formula (I) in serial dilutions. Compound dilutions were made in DMSO. The cells were incubated with the compounds of formula (I) for 96 hours and XTT tetrazolium dye (Sigma, USA) was subsequently added and incubated at 37° C. After the color formation, absorbance was measured at 465 nm in a Spectramax® Gemini spectrophotometer. EC50 values were calculated using a sigmoidal dose response curve fit in GraphPad Prism® v5 software. The tested compounds of formula (I) which caused inhibition of PC3 cell proliferation as determined by this assay protocol are shown in Table 2.
# T2 sequence (P42336 whole entry, species assumed): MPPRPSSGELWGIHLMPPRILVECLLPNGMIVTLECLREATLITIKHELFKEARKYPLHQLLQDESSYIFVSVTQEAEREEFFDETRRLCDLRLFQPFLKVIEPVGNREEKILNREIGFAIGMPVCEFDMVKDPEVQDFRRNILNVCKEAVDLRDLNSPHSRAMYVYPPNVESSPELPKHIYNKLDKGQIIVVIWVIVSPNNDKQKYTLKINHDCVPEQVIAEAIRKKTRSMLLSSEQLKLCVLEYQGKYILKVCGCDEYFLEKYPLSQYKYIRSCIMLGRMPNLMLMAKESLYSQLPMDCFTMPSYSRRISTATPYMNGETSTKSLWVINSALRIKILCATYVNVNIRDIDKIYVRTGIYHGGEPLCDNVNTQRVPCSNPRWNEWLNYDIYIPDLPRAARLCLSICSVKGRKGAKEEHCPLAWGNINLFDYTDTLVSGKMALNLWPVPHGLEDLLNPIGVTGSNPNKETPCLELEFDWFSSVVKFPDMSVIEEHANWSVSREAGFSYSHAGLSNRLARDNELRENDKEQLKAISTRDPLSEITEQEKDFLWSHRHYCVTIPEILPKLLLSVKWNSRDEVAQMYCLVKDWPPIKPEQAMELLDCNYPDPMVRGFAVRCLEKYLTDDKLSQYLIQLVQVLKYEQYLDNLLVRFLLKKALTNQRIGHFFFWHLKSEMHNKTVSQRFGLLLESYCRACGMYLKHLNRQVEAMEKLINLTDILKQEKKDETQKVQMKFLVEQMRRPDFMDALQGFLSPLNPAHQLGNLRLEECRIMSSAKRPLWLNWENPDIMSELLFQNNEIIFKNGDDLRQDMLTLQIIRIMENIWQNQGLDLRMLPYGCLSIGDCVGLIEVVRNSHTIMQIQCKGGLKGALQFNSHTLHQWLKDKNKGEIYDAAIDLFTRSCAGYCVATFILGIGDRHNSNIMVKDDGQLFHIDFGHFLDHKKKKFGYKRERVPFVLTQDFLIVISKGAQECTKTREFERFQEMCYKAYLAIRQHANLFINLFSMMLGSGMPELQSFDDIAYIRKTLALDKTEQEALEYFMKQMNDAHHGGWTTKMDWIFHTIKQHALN
# T2 sequence (P27986 whole entry partner, species assumed): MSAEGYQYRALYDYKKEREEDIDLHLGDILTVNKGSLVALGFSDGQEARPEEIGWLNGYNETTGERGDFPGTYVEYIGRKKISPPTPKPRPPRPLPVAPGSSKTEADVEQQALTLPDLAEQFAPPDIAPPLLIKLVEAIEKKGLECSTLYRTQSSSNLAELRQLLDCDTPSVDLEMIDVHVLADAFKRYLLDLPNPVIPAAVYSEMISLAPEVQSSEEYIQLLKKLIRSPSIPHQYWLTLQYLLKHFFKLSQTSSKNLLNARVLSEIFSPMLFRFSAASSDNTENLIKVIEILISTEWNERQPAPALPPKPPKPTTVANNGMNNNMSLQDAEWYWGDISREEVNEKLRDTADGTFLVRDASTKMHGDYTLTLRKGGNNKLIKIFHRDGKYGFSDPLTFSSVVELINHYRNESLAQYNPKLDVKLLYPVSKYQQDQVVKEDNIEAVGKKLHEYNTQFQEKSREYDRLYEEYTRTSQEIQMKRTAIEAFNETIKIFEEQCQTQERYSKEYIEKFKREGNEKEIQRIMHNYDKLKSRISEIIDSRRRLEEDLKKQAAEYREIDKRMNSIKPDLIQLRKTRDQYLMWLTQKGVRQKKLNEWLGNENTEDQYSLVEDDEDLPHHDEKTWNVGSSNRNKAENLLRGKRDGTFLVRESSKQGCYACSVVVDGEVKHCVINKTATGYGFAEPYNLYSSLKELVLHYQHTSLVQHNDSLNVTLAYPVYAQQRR
# T1 sequence (P42345 1362-2549 limits assumed): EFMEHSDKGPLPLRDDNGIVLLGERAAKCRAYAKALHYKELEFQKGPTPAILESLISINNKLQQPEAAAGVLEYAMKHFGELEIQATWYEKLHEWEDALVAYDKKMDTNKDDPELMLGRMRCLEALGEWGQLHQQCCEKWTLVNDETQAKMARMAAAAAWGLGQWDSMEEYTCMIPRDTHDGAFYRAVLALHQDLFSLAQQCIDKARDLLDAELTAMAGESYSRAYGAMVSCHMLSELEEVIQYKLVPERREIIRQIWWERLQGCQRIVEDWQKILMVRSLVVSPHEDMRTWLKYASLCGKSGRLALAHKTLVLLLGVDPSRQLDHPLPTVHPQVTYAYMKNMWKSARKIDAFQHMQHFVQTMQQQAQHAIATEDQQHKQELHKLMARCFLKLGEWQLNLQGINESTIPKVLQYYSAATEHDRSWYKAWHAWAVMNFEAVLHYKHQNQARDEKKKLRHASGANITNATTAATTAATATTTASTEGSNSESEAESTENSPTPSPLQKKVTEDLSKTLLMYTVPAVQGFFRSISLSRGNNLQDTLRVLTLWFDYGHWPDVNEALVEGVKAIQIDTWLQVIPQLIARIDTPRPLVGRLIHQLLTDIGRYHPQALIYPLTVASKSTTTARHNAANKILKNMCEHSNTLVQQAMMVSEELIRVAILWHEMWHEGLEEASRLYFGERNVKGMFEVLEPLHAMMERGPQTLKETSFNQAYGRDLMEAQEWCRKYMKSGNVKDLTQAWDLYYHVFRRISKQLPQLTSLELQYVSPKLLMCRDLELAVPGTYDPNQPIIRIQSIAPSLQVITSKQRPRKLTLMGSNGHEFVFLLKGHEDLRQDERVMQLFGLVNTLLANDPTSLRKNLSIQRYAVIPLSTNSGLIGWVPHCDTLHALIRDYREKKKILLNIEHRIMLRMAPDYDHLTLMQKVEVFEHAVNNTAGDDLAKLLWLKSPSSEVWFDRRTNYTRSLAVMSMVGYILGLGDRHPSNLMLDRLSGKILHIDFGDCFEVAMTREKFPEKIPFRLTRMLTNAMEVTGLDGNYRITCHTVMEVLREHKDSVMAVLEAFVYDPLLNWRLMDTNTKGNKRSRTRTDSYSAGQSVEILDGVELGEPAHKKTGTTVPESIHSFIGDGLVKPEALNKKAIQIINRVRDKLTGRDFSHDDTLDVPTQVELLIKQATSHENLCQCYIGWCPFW
Compound,pIC50 (pAkt(T308)),pIC50 (mTOR kinase),pIC50 (PI3Kα (wild-type)),pIC50 (PC3 cells)
"Nc1ncc(-c2nc(N3CCOCC3)c3ncc(-c4cccc(NC(=O)c5cccnc5)c4)cc3n2)cn1 [Example 58, N-(3-(2-(2-amino-pyrimidin-5-yl)-4-morpholinopyrido[3,2-d]pyrimidin-7-yl)-phenyl)nicotinamide]",> 7.00,> 7.30,> 7.30,6.30 to 7.00
"Nc1ncc(-c2nc(N3CCOCC3)c3ncc(-c4cccc(NC(=O)c5cnccn5)c4)cc3n2)cn1 [Example 64, N-(3-(2-(2-amino-pyrimidin-5-yl)-4-morpholinopyrido[3,2-d]pyrimidin-7-yl)-phenyl)pyrazine-2-carboxamide]",6.30 to 7.00,–,> 7.30,–
"CC(C)CCC(=O)Nc1cccc(-c2cnc3c(N4CCOCC4)nc(-c4cnc(N)nc4)nc3c2)c1 [Example 66, N-(3-(2-(2-amino-pyrimidin-5-yl)-4-morpholinopyrido[3,2-d]pyrimidin-7-yl)phenyl)-4-methylpentanamide]",5.30 to 6.30,> 7.30,> 7.30,6.30 to 7.00
"CN1CCN(CC(=O)Nc2cccc(-c3cnc4c(N5CCOCC5)nc(-c5cnc(N)nc5)nc4c3)c2F)CC1 [Example 86, N-(3-(2-(2-amino-pyrimidin-5-yl)-4-morpholinopyrido[3,2-d]-pyrimidin-7-yl)-2-fluoro-phenyl)-2-(4-methyl-piperazin-1-yl)acetamide]",5.30 to 6.30,6.70 to 7.30,> 7.30,–
"Nc1ncc(-c2nc(N3CCOCC3)c3ncc(-c4cccc(NC(=O)C5CC5)c4F)cc3n2)cn1 [Example 115, N-(3-(2-(2-amino-pyrimidin-5-yl)-4-morpholinopyrido[3,2-d]pyrimidin-7-yl)-2-fluorophenyl)-cyclopropane-carboxamide]",–,> 7.30,> 7.30,6.30 to 7.00
"Nc1ncc(-c2nc(N3CCOCC3)c3ncc(-c4cccc(C(=O)N5CCN(CCO)CC5)c4)cc3n2)cn1 [Example 116, (3-(2-(2-aminopyrimidin-5-yl)-4-morpholinopyrido[3,2-d]-pyrimidin-7-yl)phenyl)(4-(2-hydroxyethyl)piperazin-1-yl)methanone]",–,5.00 to 6.70,> 7.30,5.30 to 6.30
"CN1CCN(c2ccc(-c3cnc4c(N5CCOCC5)nc(-c5cnc(N)nc5)nc4c3)cc2NC(=O)C2CC2)CC1 [Example 117, N-(5-(2-(2-amino-pyrimidin-5-yl)-4-morpholinopyrido[3,2-d]pyrimidin-7-yl)-2-(4-methylpiperazin-1-yl)-phenyl)cyclopropane-carboxamide]",–,> 7.30,> 7.30,6.30 to 7.00
"CC(=O)Nc1ccc(F)c(-c2cnc3c(N4CCOCC4)nc(-c4cnc(N)nc4)nc3c2)c1F [Example 123, N-(3-(2-(2-amino-pyrimidin-5-yl)-4-morpholinopyrido[3,2-d]pyrimidin-7-yl)-2,4-difluorophenyl)acetamide]",–,6.70 to 7.30,> 7.30,6.30 to 7.00
"N#CC1(C(=O)Nc2ccc(F)c(-c3cnc4c(N5CCOCC5)nc(-c5cnc(N)nc5)nc4c3)c2)CC1 [Example 124, N-(3-(2-(2-amino-pyrimidin-5-yl)-4-morpholinopyrido[3,2-d]pyrimidin-7-yl)-4-fluorophenyl)-1-cyanocyclopropane-carboxamide]",–,6.70 to 7.30,> 7.30,< 6.00
"N#CC1(C(=O)Nc2cccc(-c3cnc4c(N5CCOCC5)nc(-c5cnc(N)nc5)nc4c3)c2F)CC1 [Example 125, N-(3-(2-(2-amino-pyrimidin-5-yl)-4-morpholinopyrido[3,2-d]pyrimidin-7-yl)-2-fluorophenyl)-1-cyanocyclopropane-carboxamide]",–,> 7.30,> 7.30,6.30 to 7.00

# Other lines, results leading:
pIC50 (pAkt(T308)),pIC50 (mTOR kinase),pIC50 (PI3Kα (wild-type)),pIC50 (PC3 cells),Compound
6.30 to 7.00,6.70 to 7.30,> 7.30,–,"CN1CCN(C(=O)c2ccc(-c3cnc4c(N5CCOCC5)nc(-c5cnc(N)nc5)nc4c3)o2)CC1 [Example 5, (5-(2-(2-Aminopyrimidin-5-yl)-4-morpholinopyrido[3,2-d]pyrimidin-7-yl)furan-2-yl)(4-methylpiperazin-1-yl)methanone]"
6.30 to 7.00,> 7.30,> 7.30,5.30 to 6.30,"Nc1ncc(-c2nc(N3CCOCC3)c3ncc(-c4cccc(NS(=O)(=O)c5ccc(F)cc5)c4)cc3n2)cn1 [Example 8, N-(3-(2-(2-aminopyrimidin-5-yl)-4-morpholinopyrido[3,2-d]pyrimidin-7-yl)phenyl)-4-fluorobenzenesulfonamide]"
> 7.00,> 7.30,> 7.30,6.30 to 7.00,"Nc1ncc(-c2nc(N3CCOCC3)c3ncc(-c4cccc(NC(=O)CN5CCC(O)CC5)c4)cc3n2)cn1 [Example 9, N-(3-(2-(2-Aminopyrimidin-5-yl)-4-morpholinopyrido[3,2-d]pyrimidin-7-yl)-phenyl)-2-(4-hydroxypiperidin-1-yl)acetamide]"
6.30 to 7.00,> 7.30,> 7.30,6.30 to 7.00,"CNC(=O)Nc1ccc(-c2cnc3c(N4CCOCC4)nc(-c4cnc(N)nc4)nc3c2)cc1 [Example 29, 1-(4-(2-(2-amino-pyrimidin-5-yl)-4-morpholinopyrido[3,2-d]pyrimidin-7-yl)phenyl)-3-methylurea]"
6.30 to 7.00,> 7.30,> 7.30,> 7.00,"Nc1ncc(-c2nc(N3CCOCC3)c3ncc(-c4cncc(NC(=O)C5CC5)c4)cc3n2)cn1 [Example 31, N-(5-(2-(2-amino-pyrimidin-5-yl)-4-morpholinopyrido[3,2-d]pyrimidin-7-yl)pyridin-3-yl)cyclopropane-carboxamide]"
6.30 to 7.00,> 7.30,> 7.30,6.30 to 7.00,"CNC(=O)c1ccc(-c2cnc3c(N4CCOCC4)nc(-c4cnc(N)nc4)nc3c2)cc1 [Example 33, 4-(2-(2-aminopyrimidin-5-yl)-4-morpholinopyrido[3,2-d]pyrimidin-7-yl)-N-methylbenzamide]"
5.30 to 6.30,> 7.30,> 7.30,6.30 to 7.00,"Nc1ncc(-c2nc(N3CCOCC3)c3ncc(-c4cccc(NC(=O)CO)c4)cc3n2)cn1 [Example 50, N-(3-(2-(2-amino-pyrimidin-5-yl)-4-morpholinopyrido[3,2-d]pyrimidin-7-yl)phenyl)-2-hydroxyacetamide]"
6.30 to 7.00,> 7.30,> 7.30,6.30 to 7.00,"N#CCC(=O)Nc1cccc(-c2cnc3c(N4CCOCC4)nc(-c4cnc(N)nc4)nc3c2)c1 [Example 53, N-(3-(2-(2-amino-pyrimidin-5-yl)-4-morpholinopyrido[3,2-d]pyrimidin-7-yl)phenyl)-2-cyanoacetamide]"
> 7.00,> 7.30,> 7.30,6.30 to 7.00,"CC(=O)Nc1ccc(-c2cnc3c(N4CCOCC4)nc(-c4cnc(N)nc4)nc3c2)cc1 [Example 54, N-(4-(2-(2-amino-pyrimidin-5-yl)-4-morpholinopyrido[3,2-d]pyrimidin-7-yl)-phenyl)acetamide]"
6.30 to 7.00,6.70 to 7.30,> 7.30,6.30 to 7.00,"CC(=O)Nc1cccc(-c2cnc3c(N4CCOCC4)nc(-c4cnc(N)nc4)nc3c2)c1C [Example 56, N-(3-(2-(2-amino-pyrimidin-5-yl)-4-morpholinopyrido[3,2-d]pyrimidin-7-yl)-2-methylphenyl)acetamide]"
6.30 to 7.00,> 7.30,> 7.30,5.30 to 6.30,"Nc1ncc(-c2nc(N3CCOCC3)c3ncc(-c4cccc(NC(=O)C5CCCC5)c4)cc3n2)cn1 [Example 57, N-(3-(2-(2-amino-pyrimidin-5-yl)-4-morpholinopyrido[3,2-d]pyrimidin-7-yl)-phenyl)cyclopentane-carboxamide]"

# From patent publication US9145411B2, “Substituted amino-pyrimidine derivatives” (Asana Biosciences, LLC, priority 2012, dated 2015)
